Laboratory results reported in ChEMBL document CHEMBL1201862, “PubChem BioAssay data set” (2004).
The source made the active and inactive calls.

Tests used:
HEK293 [1] = assay: HEK293T cell viability loss, resazurin readout – resazurin fluorescence, cytotoxicity control for NF-kB activator project, SAR follow-up (AID 493251); type: functional, cell-based; details: Homo sapiens
HEK293 [2] = assay: SAR Analysis of small molecule inhibitors of B-cell specific antigen receptor-induced NF-kB activation in a HEK-293T cell line using a luminescence assay - Set 2. [Related pubchem assays (depositor defined):AID435022, AID435025, AID489021]; type: functional, cell-based; details: Homo sapiens
Jurkat [3] = assay: SAR Analysis of small molecule inhibitors of […] specific antigen receptor-induced NF-kB activation in a Jurkat cell line using a luminescence assay - Set 3. [Related pubchem assays (depositor defined):AID435022, AID435025, AID465]; type: functional, cell-based; details: Homo sapiens
[4] = Trypanosoma cruzi growth suppression in host cells – NIH3T3 host cells, beta-gal luminescence, confirmation (AID 2044); type: functional, cell-based;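 note: intracellular parasites grown in NIH/3T3 mouse fibroblasts as host cells; luminescent beta-galactosidase reporter signal from transgenic T. cruzi replicating inside host cells; inhibitors lower the luminescence signal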
[5] = Counterscreen for activators of the function of SWI/SNF related, matrix associated, actin dependent regulator of chromatin, subfamily a, member 2 (SMARCA2, BRM): Luminescence-based cell-based high throughput dose response assay to identify non-selective compounds using the VP16 reporter assay.; type: functional
[6] = biological target: SWI/SNF-related matrix-associated actin-dependent regulator of chromatin subfamily A member 2 (Homo sapiens, UniProt P51531); assay: Luminescence-based cell-based high throughput dose response assay to identify activators of the function of SWI/SNF related, matrix associated, actin dependent regulator of chromatin, subfamily a, member 2 (SMARCA2, BRM).; type: functional
[7] = NIH3T3 cell viability loss – ATP luminescence, mouse fibroblasts, counter-screen, dose response (AID 2010); type: functional, cell-based;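 note: cells exposed to compound for about 90 hours before reading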
[8] = biological target: DNA repair and recombination protein RAD54-like (Homo sapiens, UniProt Q92698); assay: RAD54 Holliday junction migration blockers – biochemical, fluorescence, cherry-picked samples, dose series, confirmation (AID 651657); type: functional
[9] = biological target: T1, Polyadenylate-binding protein 1 (Homo sapiens, UniProt P11940); assay: MLLE binding blockers, Cy5 peptide tracer – biochemical, fluorescence polarization, Cy5-PAM2 peptide, secondary, miRNA deadenylation inhibitor project, dose response (AID 602260); type: functional; details: read-out: IC50_Mean
HEK293 [10] = assay: EBV LMP1 TES2 canonical NF-kB signalling blockers – cell-based, HEK293, luciferase, cherry-pick, dose response (AID 588343); type: functional; details: Homo sapiens
[11] = biological target: Latent membrane protein 1 (Human herpesvirus 4 (strain B95-8), UniProt P03230); assay: LMP1 TES1 pathway selectivity over dsRED control – imaging, HEK293T, dual-color eGFP/dsRED, cherry-picks, selectivity assay for LMP1 NF-kB inhibitor project, dose response (AID 588398); type: functional, cell-based
cells [12] = type: functional
[13] = biological target: T1, Polyadenylate-binding protein 1; assay: MLLE domain peptide-binding blockers, IC50 – biochemical, fluorescence polarization, FITC-PAM2 peptide, dose response (AID 602259); type: functional; details: read-out: IC50_Mean
[14] = THP-1 cell cytotoxicity, dose response, cytotoxicity control for non-replicating M. tuberculosis project (AID 489025); type: functional
[15] = biological target: Heat shock protein HSP 90-alpha (Homo sapiens, UniProt P07900); type: functional, organism-based
HEK293 [16] = assay: SAR Analysis of small molecule inhibitors of T-cell specific antigen receptor-induced NF-kB activation in a HEK-293T cell line using a luminescence assay - Set 2. [Related pubchem assays (depositor defined):AID435003, AID435012, AID489026]; type: functional, cell-based; details: Homo sapiens
[17] = DRD fibroblast viability loss – cell-based, non-viral oncogenic, luminescence, dose response (AID 1934); type: functional; details: Homo sapiens
cells [18] = type: functional, cell-based
[19] = reduction of Shn3 3'UTR-driven luciferase in osteoblasts – cell-based, Clone20 osteoblasts, firefly luciferase, cherry-picked, dose response (AID 624132); type: functional;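 note: firefly luciferase luminescence from reporter carrying the Shn3 3'UTR in osteoblasts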
BJ [20] = assay: growth inhibition of engineered Ras-driven BJ cells – cell-based, alamar blue fluorescence, cherrypicked samples, dose response (AID 2631); type: functional; details: Homo sapiens;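 note: confirmatory dose-response assay in RAS-dependent BJ fibroblasts engineered with TERT, LT and ST, with cytotoxicity read by fluorescence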
BJ [21] = assay: cells; type: functional, cell-based; details: Homo sapiens
BJ [22] = assay: BJ-TERT-LT-ST fibroblast viability loss – cell-based, RAS-independent, luminescence, dose response (AID 1935); type: functional; details: Homo sapiens;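 note: BJ fibroblasts immortalized with TERT plus LT and ST oncogenes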
[23] = loss of viability in HepG2 cells – cell-based, CellTiter-Glo, cherry-picked, cytotoxicity control for Shn3 inhibitor project, dose response (AID 624134); type: functional
BJ [24] = assay: BJ-TERT fibroblast viability loss – cell-based, RAS-independent, luminescence, dose response (AID 1933); type: functional; details: Homo sapiens
[25] = non-specific 3'UTR reporter inhibition in Clone20-Shn3RL – cell-based, Renilla luciferase, cherry-picked, counter-screen for Shn3 inhibitor project, dose response (AID 624133); type: functional
cells [26] = type: functional, cell-based; remark: listed apart in the source
Jurkat [27] = assay: SAR Analysis of small molecule inhibitors of T-cell specific antigen receptor-induced NF-kB activation in a Jurkat cell line using a luminescence assay - Set 2. [Related pubchem assays (depositor defined):AID435003, AID435012, AID465]; type: functional, cell-based; details: Homo sapiens
[28] = biological target: T2, Neuropeptides B/W receptor type 1 (Homo sapiens, UniProt P48145); assay: human NPBW1 receptor blockade, IC50 – cell-based, fluorescence, dose response, set 5, late-stage follow-up (AID 588566); type: functional
T2 sequence (P48145 whole entry): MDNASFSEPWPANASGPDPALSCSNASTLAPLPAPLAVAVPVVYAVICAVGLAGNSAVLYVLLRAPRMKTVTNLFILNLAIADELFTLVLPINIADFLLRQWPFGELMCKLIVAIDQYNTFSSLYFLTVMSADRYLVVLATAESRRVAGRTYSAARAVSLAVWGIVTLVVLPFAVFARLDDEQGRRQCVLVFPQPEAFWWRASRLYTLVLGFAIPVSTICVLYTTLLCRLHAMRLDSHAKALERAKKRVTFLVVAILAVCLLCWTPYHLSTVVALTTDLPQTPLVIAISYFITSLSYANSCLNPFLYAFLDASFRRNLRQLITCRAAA

[29] = biological target: Melanin-concentrating hormone receptor 1 (Homo sapiens, UniProt Q99705); assay: Late-stage fluorescence-based counterscreen for antagonists of the G-protein coupled receptor 7 (GPR7): cell-based dose response assay to identify antagonists of the melanin-concentrating hormone receptor 1 (MCHR1) Set 5.; type: functional
Melanin-concentrating hormone receptor 1, sequence (Q99705 whole entry): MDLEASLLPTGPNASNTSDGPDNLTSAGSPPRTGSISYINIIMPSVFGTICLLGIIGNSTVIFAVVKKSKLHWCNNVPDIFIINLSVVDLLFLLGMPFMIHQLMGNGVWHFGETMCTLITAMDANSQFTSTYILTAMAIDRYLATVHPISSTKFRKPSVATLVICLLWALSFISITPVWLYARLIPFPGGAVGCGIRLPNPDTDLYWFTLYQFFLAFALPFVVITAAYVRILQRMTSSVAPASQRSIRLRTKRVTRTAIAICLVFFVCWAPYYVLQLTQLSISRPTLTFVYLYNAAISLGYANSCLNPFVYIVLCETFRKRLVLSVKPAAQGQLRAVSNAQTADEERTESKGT

T1 sequence (P11940 whole entry): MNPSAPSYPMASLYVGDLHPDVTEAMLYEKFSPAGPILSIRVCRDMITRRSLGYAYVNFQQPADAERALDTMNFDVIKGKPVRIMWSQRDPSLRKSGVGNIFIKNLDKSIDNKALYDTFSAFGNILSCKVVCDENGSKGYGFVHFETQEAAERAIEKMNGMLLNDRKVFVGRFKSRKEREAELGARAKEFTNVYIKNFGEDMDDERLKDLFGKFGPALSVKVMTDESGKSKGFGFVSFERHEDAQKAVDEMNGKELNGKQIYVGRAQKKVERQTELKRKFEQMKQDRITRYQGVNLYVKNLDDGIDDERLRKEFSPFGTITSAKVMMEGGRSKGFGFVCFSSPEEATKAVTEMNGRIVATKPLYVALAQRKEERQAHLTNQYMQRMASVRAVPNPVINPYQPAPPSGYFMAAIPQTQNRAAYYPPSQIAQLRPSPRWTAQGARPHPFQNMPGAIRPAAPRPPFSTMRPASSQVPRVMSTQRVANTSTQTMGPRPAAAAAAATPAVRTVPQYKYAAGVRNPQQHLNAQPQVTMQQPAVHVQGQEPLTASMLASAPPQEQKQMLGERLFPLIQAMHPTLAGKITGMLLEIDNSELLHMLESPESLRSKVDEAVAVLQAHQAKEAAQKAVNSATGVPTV
DNA repair and recombination protein RAD54-like, sequence (Q92698 whole entry): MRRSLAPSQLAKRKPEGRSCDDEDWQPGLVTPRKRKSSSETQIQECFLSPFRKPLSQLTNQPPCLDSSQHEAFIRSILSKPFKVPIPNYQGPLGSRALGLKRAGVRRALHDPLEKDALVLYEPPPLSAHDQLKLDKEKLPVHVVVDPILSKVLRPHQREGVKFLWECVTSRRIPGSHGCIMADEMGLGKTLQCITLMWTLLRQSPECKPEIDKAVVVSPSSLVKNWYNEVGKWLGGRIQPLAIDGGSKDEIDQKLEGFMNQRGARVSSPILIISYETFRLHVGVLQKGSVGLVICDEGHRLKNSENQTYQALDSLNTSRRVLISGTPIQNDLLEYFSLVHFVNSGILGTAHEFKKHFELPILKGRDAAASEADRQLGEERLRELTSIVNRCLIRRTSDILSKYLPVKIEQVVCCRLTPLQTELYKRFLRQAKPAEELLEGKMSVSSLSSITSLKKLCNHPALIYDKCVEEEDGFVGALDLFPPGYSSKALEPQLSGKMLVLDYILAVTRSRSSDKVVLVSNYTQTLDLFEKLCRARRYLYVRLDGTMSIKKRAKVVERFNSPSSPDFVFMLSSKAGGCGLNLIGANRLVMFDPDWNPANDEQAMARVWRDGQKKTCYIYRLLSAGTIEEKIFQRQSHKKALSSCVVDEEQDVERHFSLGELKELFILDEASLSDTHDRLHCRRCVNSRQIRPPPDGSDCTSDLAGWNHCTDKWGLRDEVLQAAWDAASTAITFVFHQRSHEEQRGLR
SWI/SNF-related matrix-associated actin-dependent regulator of chromatin subfamily A member 2, sequence (P51531 whole entry): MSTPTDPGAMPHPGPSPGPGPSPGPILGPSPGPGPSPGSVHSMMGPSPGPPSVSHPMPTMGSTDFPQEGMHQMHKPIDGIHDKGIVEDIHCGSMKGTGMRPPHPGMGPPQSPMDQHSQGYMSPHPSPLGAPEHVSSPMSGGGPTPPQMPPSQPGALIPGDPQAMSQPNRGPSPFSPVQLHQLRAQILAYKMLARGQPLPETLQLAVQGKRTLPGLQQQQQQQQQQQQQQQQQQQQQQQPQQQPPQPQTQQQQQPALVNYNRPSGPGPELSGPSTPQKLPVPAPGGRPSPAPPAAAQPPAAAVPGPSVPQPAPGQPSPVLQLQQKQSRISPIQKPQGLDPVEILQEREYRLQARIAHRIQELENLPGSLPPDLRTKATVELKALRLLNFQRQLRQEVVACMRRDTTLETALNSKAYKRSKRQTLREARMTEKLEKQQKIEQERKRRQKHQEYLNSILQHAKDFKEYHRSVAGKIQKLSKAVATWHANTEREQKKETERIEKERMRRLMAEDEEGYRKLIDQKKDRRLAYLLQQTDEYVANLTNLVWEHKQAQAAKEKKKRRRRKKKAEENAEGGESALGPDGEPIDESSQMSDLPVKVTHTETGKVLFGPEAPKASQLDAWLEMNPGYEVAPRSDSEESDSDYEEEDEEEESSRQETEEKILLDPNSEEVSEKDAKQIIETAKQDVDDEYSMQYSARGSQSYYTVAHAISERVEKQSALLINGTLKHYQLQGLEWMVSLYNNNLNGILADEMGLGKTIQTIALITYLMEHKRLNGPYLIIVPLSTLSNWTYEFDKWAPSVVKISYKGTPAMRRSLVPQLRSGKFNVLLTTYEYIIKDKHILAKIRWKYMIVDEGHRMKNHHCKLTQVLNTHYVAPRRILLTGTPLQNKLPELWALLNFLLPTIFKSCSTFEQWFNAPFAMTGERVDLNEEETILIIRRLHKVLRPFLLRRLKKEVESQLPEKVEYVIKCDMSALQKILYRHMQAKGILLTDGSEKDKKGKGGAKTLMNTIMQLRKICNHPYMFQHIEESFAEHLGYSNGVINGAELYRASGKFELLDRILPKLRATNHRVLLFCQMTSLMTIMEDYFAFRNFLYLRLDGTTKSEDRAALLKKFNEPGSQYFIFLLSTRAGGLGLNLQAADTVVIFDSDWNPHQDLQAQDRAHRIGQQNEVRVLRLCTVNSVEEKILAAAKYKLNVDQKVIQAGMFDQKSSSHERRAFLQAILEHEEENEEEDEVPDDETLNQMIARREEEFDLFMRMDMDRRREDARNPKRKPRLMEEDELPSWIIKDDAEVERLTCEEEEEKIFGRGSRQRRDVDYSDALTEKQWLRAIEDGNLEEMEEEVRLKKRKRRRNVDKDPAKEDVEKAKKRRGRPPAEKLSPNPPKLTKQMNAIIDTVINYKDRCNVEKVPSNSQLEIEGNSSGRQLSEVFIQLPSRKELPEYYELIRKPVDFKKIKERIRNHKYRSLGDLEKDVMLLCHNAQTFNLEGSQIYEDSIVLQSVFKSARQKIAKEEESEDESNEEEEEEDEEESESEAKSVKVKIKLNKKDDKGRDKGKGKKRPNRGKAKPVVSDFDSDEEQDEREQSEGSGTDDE
Latent membrane protein 1, sequence (P03230 whole entry): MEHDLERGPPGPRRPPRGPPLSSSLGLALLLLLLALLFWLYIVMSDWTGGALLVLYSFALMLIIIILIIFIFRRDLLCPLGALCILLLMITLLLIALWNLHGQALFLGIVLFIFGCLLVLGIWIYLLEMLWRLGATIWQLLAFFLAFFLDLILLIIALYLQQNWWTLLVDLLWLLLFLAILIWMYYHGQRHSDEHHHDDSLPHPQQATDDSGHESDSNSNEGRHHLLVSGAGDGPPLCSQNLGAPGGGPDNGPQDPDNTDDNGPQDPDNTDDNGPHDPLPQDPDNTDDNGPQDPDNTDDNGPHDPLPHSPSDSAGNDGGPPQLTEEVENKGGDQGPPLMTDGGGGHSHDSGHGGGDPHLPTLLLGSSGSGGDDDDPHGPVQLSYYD

## CCCNC(=O)CSCc1nc(-c2ccc(OCC)cc2)oc1C
HEK293 [1]
  IC50: > 80 µM (inactive)
HEK293 [2]
  IC50: 74.7 µM (inactive)
Jurkat [3]
  IC50: > 80 µM (inactive)

## COc1cc2nc(N(C)C)nc(N)c2cc1OC
[4]
  EC50: 6.08 µM (active)
[5]
  EC50: > 91.2 µM (inactive)
[6]
  EC50: 37 µM (inactive)
[7]
  EC50: > 60 µM (not active)
[8]
  AC50: 12.5 µM (active)

## CN1C(=O)N(C)c2ccc(C=O)c3cccc1c23
[9]
  IC50: 37.9 µM (inactive)
HEK293 [10]
  AC50: 6.36 µM (active)
[11]
  AC50: 0.774 µM (active)
Cells [12]
  IC50: 31.1 µM (active)
[13]
  IC50: 58.8 µM (inactive)
[14]
  CC50: 24.6 µM (active)

## CCCCC(=O)NC(c1ccc(C(C)C)cc1)c1ccc2cccnc2c1O (stereo not drawn)
[15]
  AC50: 5.41 µM (active)
HEK293 [16]
  IC50: 6.67 µM (active)
HEK293 [1]
  IC50: 20.2 µM (inactive)
[17]
  EC50: 4.19 µM (active)
Cells [18]
  EC50: > 350 µM (not active)
[19]
  AC50: 0.57 µM (active)
BJ [20]
  EC50: 2.13 µM (active)
BJ [21]
  EC50: 2.67 µM (active)
BJ [22]
  EC50: 1.5 µM (inconclusive)
[23]
  AC50: > 70 µM (inactive)
BJ [24]
  EC50: 0.534 µM (active)
[25]
  AC50: 0.331 µM (active)
Cells [26]
  EC50: 2.94 µM (active)
Jurkat [27]
  IC50: 3.17 µM (active)

## Cc1ccc(C(C#N)c2c(Cl)cnn(Cc3cccc4ccccc34)c2=O)cc1 (stereo not drawn)
[28]
  IC50: 0.381 µM (active)
[29]
  IC50: 1.24 µM (active)

## CCOc1ccc(-c2nc(CSCC(=O)NCCc3ccc(Cl)cc3)c(C)o2)cc1
HEK293 [1]
  IC50: > 80 µM (inactive)
HEK293 [2]
  IC50: > 80 µM (inactive)
Jurkat [3]
  IC50: 63.8 µM (inactive)
